# Read-outs that look alike come from different tables or passages of the source.
# Tests used:
# [1] = test system: E. multilocularis metacestode vesicles; test: microbe, parasite or virus in culture; conditions: Echinococcus multilocularis, 288 h, read-out: mean viability
# [2] = test system: E. multilocularis germinal layer cells; test: CellTiter-Glo viability assay on germinal layer cell cultures; format: cell-based; conditions: Echinococcus multilocularis, 120 h, 5 days, read-out: E.m. GL cells (IC50)
# Experimental: To assess the effects of MMV665807 on the viability of parasite cells, germinal layer cells were extracted according to Spiliotis et al. After overnight aggregate formation, 15 units of cells were distributed to a black 384 well plate (Nunc, Thermo Scientific, Reinach, Switzerland) in 12.5 μL medium. A concentration series (final concentrations of 3, 1, 0.3, 0.1, 0.03, 0.01 μM) of MMV665807, MMV665794 and mefloquine were prepared in medium and added 1:2 to the cells. For mefloquine, the concentration range was adjusted in a subsequent setup up to 100 μM. As negative control, DMSO was added accordingly. After 5 days of culture at 37°C under humid nitrogen atmosphere, 25 μL CellTiter-Glo (Promega, Dübendorf, Switzerland) including 1% TritonX-100 was added. Plates were incubated for 15 minutes on a shaker at room temperature and complete disruption of all cell aggregates was checked for before measurement of luminescence on a 2300 Enspire multilabel reader (Perkin-Elmer). Mean values and standard deviations were calculated and DMSO values set to 100% viability. The IC50 value was calculated in Microsoft Excel 2010 after logit-log transformation and averages as well as standard deviations of four independent setups were calculated.
# [3] = test system: E. multilocularis metacestodes; conditions: PGI assay; cited from earlier work
# [4] = test system: newly transformed schistosomula; set-up: method as in PMID 24416463; conditions: in vitro; read-out: IC50 against newly transformed schistosomula; cited from earlier work
# [5] = test system: Reuber rat hepatoma (RH) cells; test: alamarBlue viability assay on RH cells; format: cell-based; conditions: 120 h, 5 days
# Experimental: (§1) For testing growth inhibitory effects on confluent host cells, cells were seeded in 96-well plates (10,000 cells per well for HFF and 50,000 cells per well for RH cells), in DMEM containing FBS (10%) and antibiotics (100 U penicillin, 100 μg streptomycin and 0.25 μg amphotericin B per mL medium) and were cultured overnight at 37°C, 5% CO2. Thereafter the drugs (10 μM) were added and diluted in a serial 1:2 dilutions down to 20 nM. The concentration range was further adjusted in subsequent setups. For testing growth inhibitory effects on proliferating cells, cells were seeded at 1,000 (HFF) and 5,000 (RH) cells per well, and were allowed to attach for 5 hours at 37°C before addition of the drugs. After 5 days of culture, cell viability was assessed by alamarBlue assay.
# [6] = test system: adult worms; set-up: method as in PMID 24416463; conditions: in vitro; read-out: IC50 against adult worms; cited from earlier work
# [7] = test system: E. multilocularis metacestodes; test: PGI assay: phosphoglucose isomerase release from damaged metacestodes; format: cell-based, Echinococcus multilocularis; conditions: PGI assay, 10-0.01 μM, 5 days
# Method in brief: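 Damage readout: PGI enzyme release after 5-day in vitro culture of 2–4 mm metacestode vesicles (H95 strain, from i.p.-infected BALB/c mice) with compound. Primary screen: 10 μM per single well, 0.1% DMSO negative control. EC50 calculated from PGI release data.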
# [8] = test system: human foreskin fibroblasts (HFF); test: alamarBlue viability assay on HFF; format: cell-based; conditions: Fibroblast, 120 h, 5 days
# Experimental: as §1
structure (smiles),measurement,setting,value
"OC(c1cc(C(F)(F)F)nc2c(C(F)(F)F)cccc12)C1CCCCN1 (stereo not shown) [Mefloquine, mefloquine, reference compound]",viability at 0.1 µM,[1],59.7%
same,viability at 0.2 µM,[1],74.3%
same,viability at 0.4 µM,[1],67.9%
same,viability at 0.8 µM,[1],70.9%
same,viability at 1.6 µM,[1],75%
same,viability at 3.1 µM,[1],63.5%
same,viability at 6.3 µM,[1],65.8%
same,viability at 12.5 µM,[1],79.4%
same,viability at 25 µM,[1],83.1%
same,viability at 50 µM,[1],5.25%
same,viability at 100 µM,[1],8.49%
same,IC50,[2],13.8 ± 0.33 µM
same,EC50,[3],> 30 µM
FC(F)(F)c1cccc(Nc2nc3ccccc3nc2Nc2cccc(C(F)(F)F)c2)c1 [MMV665794],IC50,[4],> 33.3 µM
same,IC50,"[5]; confluent cells, read-out: Confluent RH (IC50)",0.8 ± 0.15 µM
same,IC50,"[5]; proliferating cells, read-out: Preconfluent RH (IC50)",1.1 ± 0.18 µM
same,IC50,[2],5.8 ± 0.16 µM
same,IC50,[6],1.1 µM
same,EC50,"[7]; Echinococcus multilocularis, 120 h",< 5 µM
same,EC50,[7],2.8 ± 0.53 µM
same,IC50,"[8]; confluent cells, read-out: Confluent HFF (IC50)",21.5 ± 0.17 µM
same,IC50,"[8]; proliferating cells, read-out: Preconfluent HFF (IC50)",5.9 ± 0.21 µM

# — publication PMC4788259 (PLoS Neglected Tropical Diseases, 2016)
